From paper PMC9098866, “Signal transduction in light-oxygen-voltage receptors lacking the active-site glutamine” (Nature Communications, 2022) come the findings set out here.

SMILES strings stand for the structures.

The target of test [1] is T1, A. sativa phototropin 1 LOV2 (AsLOV2) (Avena sativa, UniProt O49003).
T1 construct: gene NPH1-1; LOV2 domain residues 404-546 with flanking A'alpha and Jalpha helices; E. coli expression; N-terminal His6-SUMO tag cut by Senp2, leaving N-terminal GEF extension
In words: X-ray crystal structure. The format is binding. The settings on record: dark-adapted 1.00 A (7PGX) and blue-light freeze-trapped 1.09 A (7PGY); light: thioadduct with C450 (covalent, not seen in density, modelled noncovalent); sodium acetate pH 4.6-5.0.

Test [2] addresses T2, A. sativa phototropin 1 LOV2 (AsLOV2) (Avena sativa, UniProt O49003, Q513L).
T2 construct: gene NPH1-1; LOV2 domain residues 404-546 with flanking A'alpha and Jalpha helices; E. coli expression; N-terminal His6-SUMO tag cut by Senp2, leaving N-terminal GEF extension
In words: X-ray crystal structure. The settings on record: dark-adapted 0.90 A (7PGZ) and blue-light freeze-trapped 0.98 A (7PH0); light: thioadduct with C450 (covalent, modelled noncovalent); sodium acetate pH 4.6-5.0. The format is binding.

T2 sequence (O49003 entry or part of it Q513L): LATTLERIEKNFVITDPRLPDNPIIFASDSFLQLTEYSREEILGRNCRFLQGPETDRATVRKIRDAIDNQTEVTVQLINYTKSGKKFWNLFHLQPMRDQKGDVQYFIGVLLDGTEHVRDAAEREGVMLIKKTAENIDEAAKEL
T1 sequence (O49003 entry or part of it): as the sequence (O49003 entry or part of it Q513L) above, with L110Q counted along it

Consider `Cc1cc2nc3c(=O)[nH]c(=O)nc-3n(C[C@H](O)[C@H](O)[C@H](O)COP(=O)(O)O)c2cc1C` [flavin mononucleotide], for which the X-ray crystal structure in test [1] was 7pgx (wild-type, dark), 7pgy (wild-type, light), 7pgz (Q513L, dark), and 7ph0 (Q513L, light); in test [2], “the cofactors were generally modeled as noncovalently bound oxidized flavin mononucleotides”.
